Patent publication US6858640B2, “Tricyclic indole compounds having affinity for serotonin receptor” (Shionogi & Co., Ltd., priority 2000, dated 2005)
Like-named read-outs stand apart in the source and are kept apart here.

Experiments:
5HT1A = target: T1, 5HT1A (Rattus norvegicus, UniProt P19327); assay: radioligand binding to serotonin receptor, cell membrane sample, Ki by Cheng-Prusoff
T1 construct: prepared from brain of rats or HEK293 cells, which expressed the receptor; from tissue; host or cells: rat brain membranes
T1 sequence (P19327 1-422): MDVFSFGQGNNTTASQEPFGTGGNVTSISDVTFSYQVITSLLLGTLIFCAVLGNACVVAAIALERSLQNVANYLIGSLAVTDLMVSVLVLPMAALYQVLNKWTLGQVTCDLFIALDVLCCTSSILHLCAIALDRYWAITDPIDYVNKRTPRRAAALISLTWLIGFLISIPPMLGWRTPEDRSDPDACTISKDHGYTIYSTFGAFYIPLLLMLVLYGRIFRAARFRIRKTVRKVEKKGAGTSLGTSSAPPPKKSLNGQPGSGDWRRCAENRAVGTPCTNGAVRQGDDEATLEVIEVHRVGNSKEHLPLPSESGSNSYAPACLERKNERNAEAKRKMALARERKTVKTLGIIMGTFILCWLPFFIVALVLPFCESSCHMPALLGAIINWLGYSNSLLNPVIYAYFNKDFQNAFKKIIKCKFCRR
Method: (§1) A mixture of radioactive ligands and some cardinal numbers of test compounds was incubated with a sample of cell membrane, which was prepared from brain of rats or HEK293 cells, which expressed the receptor, under the following conditions. Then, the sample was filtered by suction on a Whatman GF/C. Radioactivity on the filter was encountered by the use of a liquid scintillation counter. 50% Inhibitory concentration values (IC50 values) of each selective binding were calculated for test compounds and the Ki value was obtained by applying an equation of Cheng-Prusoff [Biochem. Pharmacol. 22 (1973) 3099-3108] Ki=IC50/(1+[L]/Kd).

5HT7 = 5HT7 (Homo sapiens, UniProt P34969); assay: as above
5HT7, sequence (P34969 whole entry, species assumed): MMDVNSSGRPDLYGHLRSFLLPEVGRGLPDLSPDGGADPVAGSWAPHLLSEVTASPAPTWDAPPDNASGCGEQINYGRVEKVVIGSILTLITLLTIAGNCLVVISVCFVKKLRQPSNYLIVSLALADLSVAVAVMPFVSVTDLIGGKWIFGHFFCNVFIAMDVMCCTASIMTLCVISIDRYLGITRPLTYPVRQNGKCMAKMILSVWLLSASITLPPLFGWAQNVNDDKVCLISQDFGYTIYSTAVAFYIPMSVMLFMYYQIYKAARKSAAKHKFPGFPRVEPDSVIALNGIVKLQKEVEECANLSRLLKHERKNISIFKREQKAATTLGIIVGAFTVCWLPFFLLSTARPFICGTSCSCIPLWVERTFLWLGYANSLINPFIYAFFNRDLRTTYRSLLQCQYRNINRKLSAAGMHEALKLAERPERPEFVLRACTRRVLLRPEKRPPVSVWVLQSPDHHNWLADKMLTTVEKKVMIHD
Method: as §1

5HT6 = target: T2, 5HT6 (Homo sapiens, UniProt P50406); assay: radioligand binding to serotonin receptor, cell membrane sample, Ki by Cheng-Prusoff
T2 construct: expressed in transfected cells; host or cells: HEK293
T2 sequence (P50406 whole entry, species assumed): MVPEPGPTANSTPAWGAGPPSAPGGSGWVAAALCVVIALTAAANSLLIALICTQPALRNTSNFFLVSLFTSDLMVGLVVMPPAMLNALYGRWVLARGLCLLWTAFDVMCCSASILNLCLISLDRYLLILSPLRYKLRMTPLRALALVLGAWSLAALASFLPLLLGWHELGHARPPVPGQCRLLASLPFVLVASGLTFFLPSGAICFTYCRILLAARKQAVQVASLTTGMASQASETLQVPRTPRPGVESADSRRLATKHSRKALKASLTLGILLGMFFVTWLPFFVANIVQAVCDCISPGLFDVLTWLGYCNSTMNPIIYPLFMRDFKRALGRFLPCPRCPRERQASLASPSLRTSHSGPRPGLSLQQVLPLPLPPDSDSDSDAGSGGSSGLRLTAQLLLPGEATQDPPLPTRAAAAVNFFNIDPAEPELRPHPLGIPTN
Method: as §1

[1] = rat hippocampus membranes, 1 nM [3H] 8-OH-DPAT, 25° C. 30 min, read-out: Ki value (nM) ±SE 5-HT1A
[2] = Human 5-HT7 (HEK293), 0.5 nM [3H] 5CT, 25° C. 120 min, read-out: Ki value (nM) ±SE 5-HT7

Row | SMILES | Ki (5HT1A) [nM] | Ki (5HT7) [nM] | melting point [°C] | Ki (5HT6) [nM] | Ki (5HT1A; [1]) [nM] | Ki (5HT7; [2]) [nM]
1 | CCCNC1COc2cccc3[nH]cc(c23)C1 (stereo not drawn) [Compound 19-3] | 5.7 | 46 | 137 to 139 | – | – | –
2 | CNC1COc2c(Br)ccc3[nH]cc(c23)C1 (stereo not drawn) [Compound 19-15] | 7.7 | 16 | – | 4.6 | – | –
3 | CN(C)C1COc2c(Br)ccc3[nH]cc(c23)C1 (stereo not drawn) [Compound 19-16] | 58 | 86 | 142 to 143 | 62 | – | –
4 | CCN(CC)C1COc2cccc3c2c(cn3S(=O)(=O)c2ccccc2)C1 (stereo not drawn) [Compound 36-3] | – | – | 106 to 108 | 4.2 | 58 | –
5 | CN(C)C1COc2c(-c3ccccc3)ccc3[nH]cc(c23)C1 (stereo not drawn) [Compound 38, Dimethyl-(5-phenyl-2,7,8,9-tetrahydro-6-oxa-2-azabenzo[cd]azulen-8-yl)amine] | – | – | 168 to 170 | – | 83 | 22
6 | COC(=O)/C=C/c1ccc2[nH]cc3c2c1OCC(N(C)C)C3 (stereo not drawn) [Compound 39, (E)-3-(8-Dimethylamino-2,7,8,9-tetrahydro-6-oxa-2-azabenzo[cd]azulen-5-yl)acrylic acid methyl ester] | – | – | – | – | 27 | 73
7 | C=Cc1ccc2[nH]cc3c2c1OCC(N(C)C)C3 (stereo not drawn) [Compound 40, Dimethyl-(5-vinyl-2,7,8,9-tetrahydro-6-oxa-2-azabenzo[cd]azulen-8-yl)amine] | – | – | – | 32 | 15 | 74
